Test results reported in patent US9518283B1, “Selective enrichment media and uses thereof” (priority 2012, dated 2016).

Experiments:
[1] = test system: non-Salmonella gram negative species; assay: Media formulations / selective agents tested against competitor species; format: cell-based
Description: Several media formulations were tested for permitting growth of Salmonella while inhibiting growth of non-Salmonella species. […] To minimize the potential of such environmental microflora to contribute to false positive reactions in selective indicator media, flavonoid compounds were investigated. Myricetin was tested as a potential suitable inhibitor for at least some of these gram negative species.

[2] = test system: Shiga toxin-producing E. coli and Salmonella; format: cell-based

O=c1c(O)c(-c2cc(O)c(O)c(O)c2)oc2cc(O)cc(O)c12 [Myricetin]
effectiveness as inhibitor ([1]; Citrobacter and E. coli inactive isolates): of little use
inhibition ([1]; Enterobacter and Klebsiella spp.): inhibits
effectiveness as inhibitor ([1]; K. oxytoca and E. aerogenes): effective

CCN(CC)c1ccc(C(=C2C=CC(=[N+](CC)CC)C=C2)c2ccccc2)cc1 [Brilliant green]
effect against Shiga toxin-producing E. coli (or Salmonella) [2]: no effect

O=C1CN(N=Cc2ccc([N+](=O)[O-])o2)C(=O)N1 [nitrofurantoin, 1-[[(5-Nitro-2-furanyl)methylene]amino]-2,4-imidazolidinedione]
effectiveness against Shiga toxin-producing E. coli and Salmonella [2]: surprisingly ineffective
